Laboratory results: US20190092802A1, “ANTAGONISTS OF NK1 RECEPTORS DERIVED FROM CARBOHYDRATES, PRODUCTION METHOD AND MEDICAL USE” (CONSEJO SUPERIOR DE INVESTIGACIONES CIENTIFICAS (CSIC), priority 2015, published 2019)
Entries after “also recorded” stand apart in the source; their conditions may differ.

Key:
NK1 receptor [1] = target: T1, NK1 receptor (Homo sapiens, UniProt P25103); test: IP-One assay (SP-induced IP1 accumulation in CHO cells transfected with NK1); format: cell-based; design: expressed in transfected cells; host or cells: CHO cells, transient electroporation
Description: Non-essential amino acids were also added to the medium (Invitrogen).
Transient transfection of the cell lines was carried out by electroporation in a volume of 300 μL with a total of 10 μg DNA (pRK5 Neo-NK1 wild type) plasmid (using up to 500 ng of pRK5como carrier DNA to achieve 10 μg) and with 10^7 cells in the electroporation buffer (50 mM K2HPO4, 20 mM CH3COOK, 20 mM KOH and 26 mM MgSO4, pH 7.4). After electroporation (280 V, 1 mF, GeneZapper 450/2500; IBI, New Haven, Conn., USA), the cells were suspended in a complete medium and seeded on well culture plates with a density of 10^5 per well. The 96-well culture plates were first covered with polyornithine diluted in PBS, then incubated at 37° C. for 30 minutes and they were then washed with PBS before being seeded.
The activation and inhibition of the route of the IP by the NK1 receptor agonists and antagonists, respectively, was determined using the dynamic IP-One kit (Cisbio Bioassays, Bagnols-sur-Cèze, France). After transfection, 10^5 cells were distributed in 100 pll of a complete medium into a 96-well assay plate (Greiner Bio-One, Courtaboeuf, France). After 24 hours, the medium was eliminated and replaced by 40 μl of an incubation medium that contained the agonist and/or antagonist in an appropriate concentration.
Target sequence in this assay (P25103 whole entry, species assumed): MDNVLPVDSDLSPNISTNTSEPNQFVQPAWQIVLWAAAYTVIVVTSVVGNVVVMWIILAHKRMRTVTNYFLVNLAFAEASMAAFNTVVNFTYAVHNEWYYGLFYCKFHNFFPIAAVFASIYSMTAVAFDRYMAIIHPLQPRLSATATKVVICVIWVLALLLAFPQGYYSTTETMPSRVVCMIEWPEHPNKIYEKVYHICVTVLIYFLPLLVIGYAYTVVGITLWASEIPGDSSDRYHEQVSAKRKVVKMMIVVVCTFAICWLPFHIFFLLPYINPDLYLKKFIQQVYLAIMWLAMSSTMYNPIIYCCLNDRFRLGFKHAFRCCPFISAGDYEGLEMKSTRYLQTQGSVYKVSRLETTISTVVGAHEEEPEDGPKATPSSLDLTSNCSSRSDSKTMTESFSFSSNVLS

NK1 receptor [2] = target: T1, NK1 receptor; test: Displacement of marked SP ([125I]BH-SP); format: binding; settings: Concentration 6.0E−05 M; marked SP 0.15 nM, 60 minutes at room temperature
Target sequence in this assay (P25103 whole entry): as the sequence (P25103 whole entry, species assumed) above

[3] = tested on: A549 human cells from lung adenocarcinoma; test: MTT cell viability assay, A549; format: cell-based; settings: for IC50: A549, 48 hours exposure, MTT; for anticancer activity against the cancer line (in words): A549 lung cancer cells
[4] = tested on: MRC5 non-malignant human lung cells; test: MTT cell viability assay, MRC-5; format: cell-based
[5] = Homo sapiens, MRC5, MRC-5, 48 hours exposure

Row | Molecule | % Inhibition of the control specific affinity (NK1 receptor [2]) [%] | IC50 ([3]; Homo sapiens) [µM] | IC50 [4, 5] [µM] | anticancer activity against the cancer line (in words) [3] | also measured
1 | CC(=O)N[C@@H](Cc1c[nH]c2ccccc12)C(=O)OCc1cc(C(F)(F)F)cc(C(F)(F)F)c1 [L-732,138, reference compound] |  |  |  |  | Kinact (NK1 receptor [1]; inhibition of substance P (SP), dose-response curves, IP-One assay): 8.37E−08±2.63 M; SP inhibition (NK1 receptor [1]; ligand concentration of 10^−6M): 69%
2 | C[C@@H](O[C@H]1OC[C@@H]2OC(C)(C)O[C@@H]2[C@H]1OCc1ccc(F)cc1)c1cc(C(F)(F)F)cc(C(F)(F)F)c1 [Compound 8] | ≥100 |  |  |  | 
3 | COc1ccccc1CN[C@H]1C2CCN(CC2)[C@H]1C(c1ccccc1)c1ccccc1 [CP-96345, reference compound] |  | 46.8 ± 8.89 | 57.9 ± 8.07 |  | 
4 | C[C@@H](O[C@H]1O[C@@H]2CO[C@@H](c3ccccc3)O[C@@H]2[C@H](O)[C@H]1OCc1ccc(F)cc1)c1cc(C(F)(F)F)cc(C(F)(F)F)c1 [Compound 2, (R)-{1-[3,5-bis-(trifluoromethyl)phenyl]ethyl} 2-O-p-fluorobenzyl-(R)-[4,5-O-benzylidene]-α-D-galactopyranoside] | ≥100 | 19.3 ± 7.93 | 120 ± 3.45 | most active; also recorded: matches those of cisplatin | NK1 receptor antagonist activity (in words) (NK1 receptor [1]; IP-One assay, inhibition of SP activity): excellent inhibitors of SP activity; also recorded: greatest antagonist activity
5 | (R)-{1-[3,5-bis-(trifluoromethyl)phenyl]ethyl} 2-O-p-fluorobenzyl-(R)-[4,5-O-benzylidene]-β-D-D-galactopyranoside [Compound 1] |  |  |  | most active | IC50 [3]: 28 ± 6.85 µM; IC50 ([4]; MRC-5, 48 hours exposure): 141 ± 1.82 µM
6 | C[C@@H](O[C@H]1OCCN(Cc2n[nH]c(=O)[nH]2)[C@H]1c1ccc(F)cc1)c1cc(C(F)(F)F)cc(C(F)(F)F)c1 [Aprepitant, reference compound] |  | 15.7 ± 3.46 | 22.1 ± 6.92 |  | 
